Source: patent US20230165831A1, “METHOD AND COMPOSITION FOR RENDERING CANCER CELLS SUSCEPTIBLE TO TREATMENT BY TARGETED ONCOGENETIC DRIVERS” (IMPACT BIOLIFE SCIENCE, INC., priority 2021, published 2023)
Like-named read-outs stand apart in the source and are kept apart here.

Key:
[1] = system: lung adenocarcinoma line A549 cells;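 note: luminescent ATP readout with CellTiter-Glo after compound exposure, used to assess growth inhibition and combination synergy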
Method: (§1) To measure the cell inhibition effect of compounds and synergy effect of test articles on ten (10) cell lines using standard CTG assay.
(§2) 7) Using complete cell medium, adjust the volume of the suspension to achieve a cell concentration.
(§3) A549, T47D, SK-OV-3, MKN45, SK-Hep-1, HT-29, Capan-1, 786-O and LNCaP cell line, for compounds and vehicle groups, the seeding density of cell lines is 3000 cells/80 µL per well. For blank groups, add 100 µL medium. For PBS groups, add 100 µL PBS.
(§4) 8) Incubate the U87MG, A549, T47D, SK-OV-3, MKN45, SK-Hep-1, HT-29, Capan-1, 786-O and LNCaP cells overnight at 37° C./5% CO2.
(§5) Solid compound of cis-platinum was solubilized in PBS to a stock solution of 3.333 mM.
(§6) Final volume is 100 µL per well at this point.
(§7) 5) Incubate the plates at 37° C./5% CO2 for 72 hours.
(§8) 1) Incubate the plates at room temperature and away from light for 30 minutes.
(§9) 3) Add 100 µL /well of CellTiter-Glo® Reagent in each well. Avoid light.
(§10) 4) Mix contents for 2 minutes on an orbital shaker.
(§11) 5) Incubate plate at room temperature for 10 minutes to stabilize the luminescent signal.
6) Read plates in Envision.

[2] = system: prostate adenocarcinoma line LNCap cells; assay: CTG (CellTiter-Glo) cell viability assay, 6×6 combo matrix, 72 h, LNCaP; conditions: Homo sapiens, LNCaP;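 note: luminescence signal read after adding CellTiter-Glo reagent, with cells exposed to compounds for 72 h at 37 °C under 5% CO2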
Method: as §1, §2
b. A549, T47D, SK-OV-3, MKN45, SK-Hep-1, HT-29, Capan-1, 786-O and LNCaP cell line, for compounds and vehicle groups, the seeding density of cell lines is 3000 cells/80 µL per well. For blank groups, add 100 µL medium. For PBS groups, add 100 µL PBS.
as §4, §5, §6, §7, §8, §9, §10, §11
6) Read plates in Envision.

[3] = system: lung adenocarcinoma line A549 cells; assay: CTG (CellTiter-Glo) cell viability assay, 6×6 combo matrix, 72 h, A549; conditions: for Relatively Cell inhibition of vehicle control(%): A549;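 for all read-outs here: luminescent ATP readout with CellTiter-Glo after compound exposure, used to assess growth inhibition and combination synergy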
Method: as §1, §2, §3, §4, §5, §6, §7, §8, §9, §10, §11
6) Read plates in Envision.

[4] = system: gastric cancer line MKN45 cells;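 note: MKN45 cell viability read as CellTiter-Glo luminescence after 72 h culture at 37 °C under 5% CO2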
Method: as §1, §2, §3, §4, §5, §6, §7, §8, §9, §10, §11
6) Read plates in Envision.

[5] = system: glioblastoma line U87MG cells;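 note: U87MG cells seeded at 2000 per well, exposed 72 h, viability read by CellTiter-Glo luminescence, inhibition expressed relative to vehicle-treated wells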
Method: as §1, §2
U87MG cell lines, for compounds and vehicle groups, the seeding density of cell lines is 2000 cells/80 µL per well. For blank groups, add 100 µL medium. For PBS groups, add 100 µL PBS.
as §4, §5, §6, §7, §8, §9, §10, §11
6) Read plates in Envision.

[6] = Homo sapiens, A549, read-out: Relatively Cell inhibition of vehicle control(%)

Compound: CC(=O)O[C@H]1C(=O)[C@@]2(C)[C@H]([C@H](OC(=O)c3ccccc3)[C@]3(O)C[C@H](OC(=O)[C@H](O)[C@@H](NC(=O)c4ccccc4)c4ccccc4)C(C)=C1C3(C)C)[C@]1(OC(C)=O)CO[C@@H]1C[C@@H]2O [taxol, paclitaxel]
- inhibition [1]: 13.7%
- inhibition at 0.008 µM ([2]; read-out: Relatively Cell inhibition of vehicle control(%), taxol 8 nM only (LB-1 plate)): 54%
- inhibition at 0.008 µM ([2]; read-out: Relatively Cell inhibition of vehicle control(%), taxol 8 nM only (myricetin plate)): 62.6%
- inhibition at 0.04 µM ([2]; read-out: Relatively Cell inhibition of vehicle control(%), taxol 40 nM only (LB-1 plate)): 59.2%
- inhibition at 0.04 µM ([2]; read-out: Relatively Cell inhibition of vehicle control(%), taxol 40 nM only (myricetin plate)): 65.5%
- inhibition at 0.2 µM ([2]; read-out: Relatively Cell inhibition of vehicle control(%), taxol 200 nM only (LB-1 plate)): 56.4%
- inhibition at 0.2 µM ([2]; read-out: Relatively Cell inhibition of vehicle control(%), taxol 200 nM only (myricetin plate)): 62.2%
- inhibition at 1 µM ([2]; read-out: Relatively Cell inhibition of vehicle control(%), taxol 1000 nM only (LB-1 plate)): 48.8%
- inhibition at 1 µM ([2]; read-out: Relatively Cell inhibition of vehicle control(%), taxol 1000 nM only (myricetin plate)): 55.6%
- Relatively Cell inhibition of vehicle control(%) ([3]; Tax 8 nM only (LB-1 matrix)): 55.11%
- Relatively Cell inhibition of vehicle control(%) ([3]; Tax 8 nM only (myricetin matrix)): 53.76%
- Relatively Cell inhibition of vehicle control(%) ([3]; Tax 40 nM only (LB-1 matrix)): 68.79%
- Relatively Cell inhibition of vehicle control(%) ([3]; Tax 40 nM only (myricetin matrix)): 68.03%
- Relatively Cell inhibition of vehicle control(%) ([3]; Tax 200 nM only (LB-1 matrix)): 77.44%
- Relatively Cell inhibition of vehicle control(%) ([3]; Tax 200 nM only (myricetin matrix)): 75.24%
- Relatively Cell inhibition of vehicle control(%) ([3]; Tax 1000 nM only (LB-1 matrix)): 76.64%
- Relatively Cell inhibition of vehicle control(%) ([3]; Tax 1000 nM only (myricetin matrix)): 77.27%
- inhibition [4]: 35.1%
- inhibition [5]: 5.92%

Compound: O=c1c(O)c(-c2cc(O)c(O)c(O)c2)oc2cc(O)cc(O)c12 [myricetin]
- inhibition at 0.8 µM ([2]; read-out: Relatively Cell inhibition of vehicle control(%), myricetin 0.8 µM only (cisplatin plate)): -1.65%
- inhibition at 0.8 µM ([2]; read-out: Relatively Cell inhibition of vehicle control(%), myricetin 0.8 µM only (doxorubicin plate)): -0.32%
- inhibition at 0.8 µM ([2]; read-out: Relatively Cell inhibition of vehicle control(%), myricetin 0.8 µM only (taxol plate)): -2.06%
- inhibition at 0.8 µM ([2]; read-out: Relatively Cell inhibition of vehicle control(%), myricetin 0.8 µM only (topotecan plate)): -2.79%
- inhibition at 4 µM ([2]; read-out: Relatively Cell inhibition of vehicle control(%), myricetin 4 µM only (cisplatin plate)): 0.26%
- inhibition at 4 µM ([2]; read-out: Relatively Cell inhibition of vehicle control(%), myricetin 4 µM only (doxorubicin plate)): -3.26%
- inhibition at 4 µM ([2]; read-out: Relatively Cell inhibition of vehicle control(%), myricetin 4 µM only (taxol plate)): -5.5%
- inhibition at 4 µM ([2]; read-out: Relatively Cell inhibition of vehicle control(%), myricetin 4 µM only (topotecan plate)): 8.5%
- inhibition at 20 µM ([2]; read-out: Relatively Cell inhibition of vehicle control(%), myricetin 20 µM only (cisplatin plate)): -3.11%
- inhibition at 20 µM ([2]; read-out: Relatively Cell inhibition of vehicle control(%), myricetin 20 µM only (doxorubicin plate)): -2.66%
- inhibition at 20 µM ([2]; read-out: Relatively Cell inhibition of vehicle control(%), myricetin 20 µM only (taxol plate)): 4.8%
- inhibition at 20 µM ([2]; read-out: Relatively Cell inhibition of vehicle control(%), myricetin 20 µM only (topotecan plate)): 6.5%
- inhibition at 100 µM ([2]; read-out: Relatively Cell inhibition of vehicle control(%), myricetin 100 µM only (cisplatin plate)): 27.2%
- inhibition at 100 µM ([2]; read-out: Relatively Cell inhibition of vehicle control(%), myricetin 100 µM only (doxorubicin plate)): 21.1%
- inhibition at 100 µM ([2]; read-out: Relatively Cell inhibition of vehicle control(%), myricetin 100 µM only (taxol plate)): 31.4%
- inhibition at 100 µM ([2]; read-out: Relatively Cell inhibition of vehicle control(%), myricetin 100 µM only (topotecan plate)): 30.1%
- inhibition at 0.8 µM [3, 6]: -3.15%
- inhibition at 4 µM [3, 6]: 0.85%
- inhibition at 20 µM [3, 6]: 7.42%
- inhibition at 100 µM [3, 6]: 40.3%
- Relatively Cell inhibition of vehicle control(%) ([3]; Myr 0.8 µM only (taxol matrix)): -0.98%
- Relatively Cell inhibition of vehicle control(%) ([3]; Myr 4 µM only (taxol matrix)): 3.22%
- Relatively Cell inhibition of vehicle control(%) ([3]; Myr 20 µM only (taxol matrix)): 9.01%
- Relatively Cell inhibition of vehicle control(%) ([3]; Myr 100 µM only (taxol matrix)): 41.11%

Compound: CC[C@@]1(O)C(=O)OCc2c1cc1n(c2=O)Cc2cc3c(CN(C)C)c(O)ccc3nc2-1 [topotecan]
- inhibition at […] ([2]; read-out: Relatively Cell inhibition of vehicle control(%), topotecan 16 nM only (myricetin plate)): 17.6%
- inhibition at 0.08 µM ([2]; read-out: Relatively Cell inhibition of vehicle control(%), topotecan 80 nM only (LB-1 plate)): 37.8%
- inhibition at 0.08 µM ([2]; read-out: Relatively Cell inhibition of vehicle control(%), topotecan 80 nM only (myricetin plate)): 40.1%
- inhibition at 0.4 µM ([2]; read-out: Relatively Cell inhibition of vehicle control(%), topotecan 400 nM only (LB-1 plate)): 55.9%
- inhibition at 0.4 µM ([2]; read-out: Relatively Cell inhibition of vehicle control(%), topotecan 400 nM only (myricetin plate)): 60%
- inhibition at 2 µM ([2]; read-out: Relatively Cell inhibition of vehicle control(%), topotecan 2000 nM only (LB-1 plate)): 82.1%
- inhibition at 2 µM ([2]; read-out: Relatively Cell inhibition of vehicle control(%), topotecan 2000 nM only (myricetin plate)): 83.6%
- inhibition at 10 µM ([2]; read-out: Relatively Cell inhibition of vehicle control(%), topotecan 10000 nM only (LB-1 plate)): 84.8%
- inhibition at 10 µM ([2]; read-out: Relatively Cell inhibition of vehicle control(%), topotecan 10000 nM only (myricetin plate)): 87.5%
- inhibition at 0.08 µM [3, 6]: 34.9%
- inhibition at 0.4 µM [3, 6]: 60%
- inhibition at 2 µM [3, 6]: 79.7%
- inhibition at 10 µM [3, 6]: 94.4%
- Relatively Cell inhibition of vehicle control(%) ([3]; Top 16 nM only): -0.68%
- Relatively Cell inhibition of vehicle control(%) ([3]; Top 80 nM only): 37.94%
- Relatively Cell inhibition of vehicle control(%) ([3]; Top 400 nM only): 62.21%
- Relatively Cell inhibition of vehicle control(%) ([3]; Top 2000 nM only): 80.57%
- Relatively Cell inhibition of vehicle control(%) ([3]; Top 10000 nM only): 93.99%
- inhibition [4]: 14.9%

Compound: COc1cccc2c1C(=O)c1c(O)c3c(c(O)c1C2=O)C[C@@](O)(C(=O)CO)C[C@@H]3O[C@H]1C[C@H](N)[C@H](O)[C@H](C)O1 [doxorubicin]
- inhibition at […] ([2]; read-out: Relatively Cell inhibition of vehicle control(%), doxorubicin 16 nM only (myricetin plate)): 2.69%
- inhibition at 0.08 µM ([2]; read-out: Relatively Cell inhibition of vehicle control(%), doxorubicin 80 nM only (LB-1 plate)): 29.9%
- inhibition at 0.08 µM ([2]; read-out: Relatively Cell inhibition of vehicle control(%), doxorubicin 80 nM only (myricetin plate)): 31.7%
- inhibition at 0.4 µM ([2]; read-out: Relatively Cell inhibition of vehicle control(%), doxorubicin 400 nM only (LB-1 plate)): 65.2%
- inhibition at 0.4 µM ([2]; read-out: Relatively Cell inhibition of vehicle control(%), doxorubicin 400 nM only (myricetin plate)): 67.3%
- inhibition at 2 µM ([2]; read-out: Relatively Cell inhibition of vehicle control(%), doxorubicin 2000 nM only (LB-1 plate)): 97.2%
- inhibition at 2 µM ([2]; read-out: Relatively Cell inhibition of vehicle control(%), doxorubicin 2000 nM only (myricetin plate)): 97%
- inhibition at 10 µM ([2]; read-out: Relatively Cell inhibition of vehicle control(%), doxorubicin 10000 nM only (LB-1 plate)): 87.8%
- inhibition at 10 µM ([2]; read-out: Relatively Cell inhibition of vehicle control(%), doxorubicin 10000 nM only (myricetin plate)): 88.9%
- inhibition at 0.08 µM [3, 6]: 42.2%
- inhibition at 0.4 µM [3, 6]: 61.4%
- inhibition at 2 µM [3, 6]: 95.8%
- inhibition at 10 µM [3, 6]: 94.3%
- inhibition [5]: 27.5%
